Test results taken from PMC5484173, “CB1 Allosteric Modulator Org27569 Is an Antagonist/Inverse Agonist of ERK1/2 Signaling” (Cannabis and Cannabinoid Research, 2016).
Values joined by “and” are separate entries in the source; they are usually repeats but may differ in a detail not shown here. Equal entries are not always repeated. “Also recorded” adds a separate entry of the source. Where two headings read alike, the source gives them in different places.

Key:
[1] = target: T1, human cannabinoid type-1 receptor (hCB1) (Homo sapiens, UniProt P21554); format: cell-based
T1 construct: expressed in transfected cells

GFP-rat CB1 receptor = target: T2, GFP-rat CB1 receptor (Rattus norvegicus, UniProt P20272); test: Receptor internalization (puncta count) in GFP-rat CB1 HEK293 cells; format: cell-based; details: 20-120 min
T2 construct: expressed in transfected cells
Protocol: (§1) Vendor authenticated human embryonic kidney (HEK293; American Type Culture Collection, Rockville, MD) cells were cultured in 5% fetal bovine serum (FBS) defined (Hyclone Labs, Logan, UT) in Dulbecco's modified Eagle's medium (DMEM; Corning Cellgro, Manassas, VA) at 37°C and 5% CO2. Cell lines were generated as previously described[32] by transfection of the untagged hCB1 or N-terminally green fluorescent protein (GFP)-tagged rat CB1 receptor with Lipofectamine 2000 (Life Technologies, Gaithersburg, MD). Cells were maintained in a culture medium with geneticin (0.5 mg/mL; G418) and not used after 25 passages.
(§2) Cells were plated in poly-D-lysine (PDL)-coated 6-well plates or 100-mm dishes (for fractionation experiments) to a confluency of ∼70–80% and serum starved for 24 h before all treatments. For internalization experiments, cells were plated on PDL-coated cover-slips in a 24-well format. For experiments examining Gi/o protein mediation, cells were exposed to PTX (200 ng/mL) for 18 h before drug treatment when appropriate.
For internalization experiments, GFP-rat CB1 HEK293 cells were plated on PDL-coated cover-slips in the 24-well format and treated with vehicle (0.2% DMSO), CP55,940 (1 μM), Org27569 (10 μM), or both for 20–120 min. Cell images were taken blinded, converted to grayscale in Photoshop CS5, and then analyzed in ImageJ. Background was subtracted by using a “rolling ball” algorithm (rolling=3). Puncta within the range (size=3–400, circularity=0.01–1.00) were counted. These parameters were used based on image resolution and brightness. The same conditions were applied to all the images and image analyses.

[2] = test system: hCB1-untransfected HEK293 cells; test: phospho-ERK1/2 western blot in hCB1-untransfected HEK293 cells; format: cell-based, human; details: Org27569 10 μM, 20-min treatment
Protocol: as §1, with “passages. […]” for “passages.”
Protein amount (20 μg) was determined by the Bradford method, separated by 10% SDS-PAGE, and transferred to nitrocellulose membranes. […]
Membranes were rinsed thrice in 0.1% Tween-20 in PBS before incubating with LiCor secondary antibodies (IRDye® 800CW Goat anti-Mouse; 1:6666; IRDye 680RD Goat anti-Rabbit; 1:10,000) at room temperature for 1 h. Blots were imaged using LiCor Odyssey imaging software, and phospho-ERK signal was normalized to total ERK and data expressed as percent of vehicle control. […]
Data were normalized as percent vehicle control and analyzed by one- or two-way ANOVA with Newman–Keuls and Bonferroni post hoc tests, and data were considered significant with p<0.05. […]

[3] = target: T1, human cannabinoid type-1 receptor (hCB1); test: Subcellular fractionation: phospho-ERK in nuclear-enriched and cytosolic fractions of hCB1 HEK293 cells; format: cell-based; details: Org27569 10 μM, 20 min, normalized to beta-actin
Protocol: as §2
Cells were treated by application of vehicle or antagonist followed immediately by application of vehicle or agonist and incubated in serum-free DMEM at 37°C for times indicated, then washed once with ice-cold phosphate-buffered saline (PBS), and lysed with buffer containing HEPES (50 mM), NaCl (150 mM), EDTA (1 mM), EGTA (1 mM), glycerol (10%), Triton X-100 (1%), MgCl2 (10 μM), NaF (25 mM), Na3VO4 (1 mM), para-nitrophenyl phosphate (20 mM) and EDTA-free protease inhibitor. Lysates were incubated on ice for 30 min, then centrifuged at 16,000 g for 30 min at 4°C, and supernatants were collected.
Cells were grown and treated as described above on 100-mm dishes and washed once with ice-cold PBS. […]
The initial S1 fraction was centrifuged at 10,000 g for 10 min and the resulting S2 fraction served as the cytosolic/membrane fraction. Protein was determined by the NanoDrop™ A280 assay (Thermo Scientific, Wilmington, DE). […]

CB1 = test system: CB1; set-up: method as in PMID 26044547; details: Chinese hamster ovary cells, AlphaScreen SureFire kit; cited from earlier work

T1 sequence (P21554 whole entry): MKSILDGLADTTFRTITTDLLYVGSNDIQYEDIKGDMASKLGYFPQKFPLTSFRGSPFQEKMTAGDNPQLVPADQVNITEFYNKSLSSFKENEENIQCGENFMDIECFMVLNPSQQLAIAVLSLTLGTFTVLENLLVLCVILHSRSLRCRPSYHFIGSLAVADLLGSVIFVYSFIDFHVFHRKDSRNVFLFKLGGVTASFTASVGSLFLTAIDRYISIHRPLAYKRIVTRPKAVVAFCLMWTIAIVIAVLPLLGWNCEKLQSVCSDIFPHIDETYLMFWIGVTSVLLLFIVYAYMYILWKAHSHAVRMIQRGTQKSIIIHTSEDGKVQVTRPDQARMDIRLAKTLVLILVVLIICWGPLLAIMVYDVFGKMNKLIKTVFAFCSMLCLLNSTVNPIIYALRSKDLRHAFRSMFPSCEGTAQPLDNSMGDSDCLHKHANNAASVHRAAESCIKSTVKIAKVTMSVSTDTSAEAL
T2 sequence (P20272 whole entry): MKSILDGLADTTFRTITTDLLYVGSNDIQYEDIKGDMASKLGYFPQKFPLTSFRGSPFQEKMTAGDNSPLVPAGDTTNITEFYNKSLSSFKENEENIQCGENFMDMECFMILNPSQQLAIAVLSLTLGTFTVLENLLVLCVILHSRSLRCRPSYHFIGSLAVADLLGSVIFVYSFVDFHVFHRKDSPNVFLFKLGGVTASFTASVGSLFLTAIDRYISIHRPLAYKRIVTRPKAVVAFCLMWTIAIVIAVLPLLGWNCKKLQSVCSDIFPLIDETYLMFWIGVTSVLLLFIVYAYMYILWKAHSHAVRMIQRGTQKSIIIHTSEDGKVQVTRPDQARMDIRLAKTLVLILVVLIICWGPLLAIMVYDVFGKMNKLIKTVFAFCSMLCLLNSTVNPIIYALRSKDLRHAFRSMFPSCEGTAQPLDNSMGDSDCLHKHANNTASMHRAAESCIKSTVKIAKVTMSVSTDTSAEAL

CCCCC/C=C\C/C=C\C/C=C\C/C=C\CCCC(=O)OC(CO)CO [2-AG, 2-arachidonoylglycerol]
EC80 for ERK activation ([1]; agonist alone, hCB1 HEK293 cells, 5 min): 1200 nM

CCCCCCC(C)(C)c1ccc([C@@H]2C[C@H](O)CC[C@H]2CCCO)c(O)c1 [CP55,940]
receptor internalization (puncta), agonist alone (GFP-rat CB1 receptor; CP55,940 1 μM): increases in puncta
EC80 for ERK activation [1]: 6.1 nM
effect on ERK phosphorylation, agonist alone [1]: robust increase in ERK phosphorylation

CCc1c(C(=O)NCCc2ccc(N3CCCCC3)cc2)[nH]c2ccc(Cl)cc12 [Org27569]
receptor internalization, compound alone (GFP-rat CB1 receptor; Org27569 10 μM alone): did not significantly affect receptor internalization
effect on CP55,940-induced receptor internalization (increases in puncta) (GFP-rat CB1 receptor; Org27569 10 μM with CP55,940 1 μM): prevented
bottom of the fit curve (phospho-ERK, percent of vehicle control) [1]: 111.3%±7.72%
effect on CP55,940-induced activation of ERK [1]: prevented CP55,940-induced activation of ERK
extent of antagonism of 2-AG-stimulated ERK activation [1]: did not completely attenuate
extent of antagonism of CP55,940-induced ERK activation [1]: fully antagonized
extent of antagonism of THC-induced ERK activation [1]: did not completely attenuate
pIC50±SE on ERK phosphorylation [1]: 6.78±0.273 and 6.783±0.273
effect on ERK phosphorylation, compound alone ([1]; 10.0 μM alone, 5-min incubation): small but nonsignificant reduction of ERK phosphorylation
effect on phospho-ERK levels in PTX-treated cells ([1]; Org27569 10.0 μM, 20 min, after overnight PTX (200 ng/mL)): not in PTX-treated cells
effect on basal ERK phosphorylation ([1]; Org27569 alone (10 μM), 20-min treatment, hCB1-transfected HEK293 cells, no PTX): significantly reduced basal ERK phosphorylation; also recorded: reduced basal ERK phosphorylation in hCB1-transfected; also recorded: produced a reduction in phospho-ERK levels in control cells
bottom of the fit curve (phospho-ERK, percent of vehicle control) ([1]; Org27569 concentration-response against 2-AG at EC80 (1.2 μM), 5 min): 196%±123.2%
pIC50±SE on ERK phosphorylation ([1]; no probe agonist (alone, basal ERK phosphorylation), 20 min): 6.86±0.214
IC50 ([1]; no probe agonist (alone, basal ERK phosphorylation), cells treated for 20 min): 139 nM
pIC50±SE on ERK phosphorylation ([1]; probe agonist 2-AG (1.2 μM, EC80), 5 min): 6.26±0.239
IC50 ([1]; probe agonist 2-AG (1.2 μM, EC80), cells treated for 5 min, read-out: IC50 on ERK phosphorylation): 546 nM
pIC50±SE on ERK phosphorylation ([1]; probe agonist THC (494 nM in table, 500 nM in text; EC80), 5 min): 6.38±0.394
IC50 ([1]; probe agonist THC (494 nM, EC80), cells treated for 5 min, read-out: IC50 on ERK phosphorylation): 417 nM
IC50 ([1]; read-out: IC50 on ERK phosphorylation): 165 nM
effect on basal ERK phosphorylation [2]: not in hCB1-untransfected HEK293 cells
effect on cytosolic phospho-ERK levels ([3]; cytosolic fraction): significantly decreased
effect on nuclear phospho-ERK levels ([3]; nuclear-enriched fraction): significantly decreased
effect on THC-induced ERK activation (CB1): no effect
